Tested on: Plasmodium falciparum
Assay: GSK_TCMDC: Inhibition of Plasmodium falciparum 3D7 in whole erythrocytes, using parasite LDH activity as an index of growth.
Type: functional, organism-based
Details: Plasmodium falciparum, 3D7

CC[C@H](C)CNCc1ccc(OCc2cccc(COc3ccc(CNC[C@@H](C)CC)cc3I)c2)c(I)c1
XC50: 396 nM

COc1cc(NC(=O)c2cc([N+](=O)[O-])ccc2NC(=O)CNC2CCCC(C)C2C)cc(OC)c1 (stereo not drawn)
XC50: 1040 nM

O=C(Nc1ccccc1F)NC1CCN(c2ccnc(Nc3ccc(F)cc3)n2)CC1
XC50: 754 nM

CCOC(=O)c1nc(-c2ccc(Cl)cc2)[nH]c1NC(=S)NCCCN1CCOCC1
XC50: 868 nM

CCS(=O)(=O)Nc1ccc2[nH]cc(C3CCN(CCC4CCN(C(=O)/C=C/c5ccc(Cl)c(Cl)c5)CC4)CC3)c2c1
XC50: 534 nM

Nc1nc(N)c2c(ccc3c2ccn3Cc2ccccn2)n1
XC50: 8.31 nM

CCCNCc1ccc(-c2ccc(CN(CCOC)C(=O)c3nn(-c4ccccc4)nc3C)cc2)nc1
XC50: 725 nM

CC(C)CNCc1cccc(-c2ccc(CN(C(=O)Nc3ccccc3)C3CCN(Cc4ccccc4)CC3)cc2)c1
XC50: 476 nM

CCc1ccc(CNCC(CCNc2cc(=O)c3ccccc3[nH]2)NCc2cc(Br)cc(Br)c2)o1 (stereo not drawn)
XC50: 638 nM

CC(C)(C)C(=O)Nc1ccc(C(=O)Nc2cccc(-c3nc4ccccc4[nH]3)c2)cc1
XC50: 282 nM

Cc1ccc(-c2csc(C)n2)c(C)c1
XC50: 991 nM

Cc1nc(N)nc(N)c1CCCOc1ccc(Br)cc1
XC50: 485 nM

Cc1cc(O)c2c(c1)OC(C)(C)C=C2C1=CCN(Cc2ccccc2)CC1
XC50: 791 nM

O=C(O[C@@H]1CN[C@H](C#Cc2cc3c(Nc4ccc5c(cnn5Cc5ccccc5)c4)ncnc3s2)C1)N1CCCC1
XC50: 424 nM

O=C(NC1CC1)c1ccc(N2CCCCN2CCc2ccccc2)c(C(F)(F)F)c1
XC50: 622 nM

COc1ccc(C2CC(c3cccs3)=NN2C(=O)c2ccco2)cc1OC (stereo not drawn)
XC50: 172 nM

CCOc1ccc(CCCON2C(=N)N=C(N)NC2(C)C)cc1
XC50: 3.2 nM

CCNC(=O)Nc1cccc(-c2cccc(-c3nc4cccc(C)c4[nH]3)c2)c1
XC50: 1040 nM

CCCOc1cc(OCCC)cc(-c2cc(=O)c3ccccc3[nH]2)c1
XC50: 58.1 nM

CC1(C)N=C(NC(=O)c2ccc([N+](=O)[O-])cc2)N=C(N)N1OCc1ccc2ccccc2c1
XC50: 7.57 nM

Cc1c(C(=O)N[C@@H](C)c2ccccc2)c2cc(O)c(Br)cc2n1C1CCCCC1
XC50: 840 nM

Cc1cc(-c2ccc(CN3Cc4ccccc4C3)cc2)ccc1S(=O)(=O)NCCN1CCCC1
XC50: 966 nM

COc1cccc(CCc2nc3c(N4CCC(Cc5ccccc5)CC4)cccc3n2CC2CNCCO2)c1 (stereo not drawn)
XC50: 800 nM

O=C(Cc1cccc2ccccc12)NC1CCN(c2ccnc3cc(Cl)ccc23)C1 (stereo not drawn)
XC50: 248 nM

CCc1nc2nc(C)cc(Nc3ccc4c(c3)OCCO4)n2n1
XC50: 1290 nM

CCCN(CCC)c1nn2c(=O)c(C(=O)N3CCN(Cc4ccccc4)CC3)cnc2s1
XC50: 999 nM

CC(=O)Nc1cccc(NC(=O)CSc2ccc(-c3nc4ccccc4[nH]3)cn2)c1
XC50: 559 nM

CCc1cn(C)c2c(N3CCCC3=O)cc(C(=O)N[C@@H](Cc3ccccc3)[C@H](O)CNC3CCCCC3)cc12
XC50: 118 nM

CCCC(C)NC(=O)C(N)Cc1cccc(I)c1 (stereo not drawn)
XC50: 975 nM

CCOc1ccc(C(C)NC(=O)Nc2ccccc2)cc1OCC (stereo not drawn)
XC50: 901 nM

CCN1CCC(N(Cc2ccc(-c3ccc(C(F)(F)F)cc3)cc2)C(=O)Cn2c(CCc3cccc(F)c3F)cc(=O)c3c2CCC3)CC1
XC50: 972 nM

Cc1ccccc1OCC(=O)Nc1ccc(-c2nc3cc4ccccc4cc3[nH]2)cc1
XC50: 753 nM

CC(=O)Nc1ccc(OCCN(Cc2ccccc2C(F)(F)F)c2ccc(C#N)c(C(F)(F)F)c2)cc1
XC50: 443 nM

NC1=NC(c2ccccc2)(c2ccccc2)C(=O)N1CC1CCC1
XC50: 753 nM

Cc1ccc(F)c(OCC2CCN(c3ccc(C(=O)NC4CC4)cn3)CC2)c1
XC50: 733 nM

Oc1ccc(CCNc2nc(NCc3cccc(-c4cc(C(F)(F)F)ccc4Cl)c3)nc(N3CCNCC3)n2)cc1
XC50: 1780 nM

COc1ccc(CNCc2ccc(-c3ccc(-c4nc5cc(F)ccc5[nH]4)cc3)cc2)cc1
XC50: 249 nM

Fc1cccc(Nc2nc(NCc3ccc(Cl)c(Cl)c3)nc(Nc3cccc(F)c3)n2)c1
XC50: 748 nM

CCN(CC)CCOc1ccc(NC(=O)c2oc3ccccc3c2C=Cc2ccccc2)cc1
XC50: 223 nM

O=C(NCCN1CCC(c2ccncc2)CC1)c1ccc(Nc2nccc(Nc3ccc(Oc4ccccc4)cc3)n2)cc1
XC50: 724 nM

Oc1ccc(Cl)cc1CN1CCC(CCOC(c2ccccc2)c2ccccc2)CC1
XC50: 649 nM

CCc1ccc(C2CCN(CCCCNC(=O)c3ccc(NC(=O)c4ccc(Cl)cc4)cc3)CC2)c(OCC(=O)OC)c1
XC50: 1030 nM

Cc1cc(=NN=Cc2ccc(Cl)cc2)c2cccc(C)c2[nH]1
XC50: 723 nM

CNS(=O)(=O)c1ccc(NC(=O)c2cc(-c3cccnc3)nc3ccc(Br)cc23)cc1
XC50: 907 nM

Cc1ccc(S(=O)(=O)Nc2ccc(Nc3nccc(Nc4cccc5[nH]ncc45)n3)cc2)cc1
XC50: 958 nM

CN1CCN(c2ccnc3cc4c(cc23)N(C(=O)Nc2ccc3c(c2)CCCC3=O)CC4)CC1
XC50: 623 nM

CCCCCCNC(=O)C1Cc2c([nH]c3ccc(F)cc23)C2(CCN(Cc3ccccc3)CC2)N1 (stereo not drawn)
XC50: 871 nM

CC(C)Cc1nc(N2CCOCC2)c2nnn(Cc3ccccc3)c2n1
XC50: 508 nM

C=CCn1c(=N)c(C(=O)NCc2ccc(F)cc2)cc2c(=O)n3cccc(C)c3nc21
XC50: 1170 nM

O=C(N[C@@H](CC1CCCCC1)C(=O)NCCc1ccc(Cl)c(Cl)c1)c1ccc(O)c(-c2ccc(Cl)c(Cl)c2)c1
XC50: 156 nM

COc1cc(Cc2cnc(N)nc2N)cc(OCCCCC2NC(=O)NC2=O)c1OC (stereo not drawn)
XC50: 714 nM

COc1ccc(S(=O)(=O)Nc2ccc(C(=O)NCc3ccccc3C(F)(F)F)cc2)cc1N1CCN(CC2CC2)CC1
XC50: 1150 nM

c1ccc(CCNCc2ccc(-c3ccc(CNCc4ccc5c(c4)OCO5)cc3)nc2)cc1
XC50: 1250 nM

CC(C)Nc1nc(NC2CCCCC2)nc(N2CCCCCCC2)n1
XC50: 1090 nM

Cc1cccc2nc(-c3ccc(-c4ccc(CNCCNC(=O)c5ccnn5C)cc4)s3)[nH]c12
XC50: 308 nM

CCN(CC)c1ccc(-c2nc3cc(Cl)cnc3[nH]2)cc1
XC50: 1130 nM

O=C1C(c2ccccc2)=C(Nc2cccc([N+](=O)[O-])c2)c2ccccc21
XC50: 892 nM

Clc1ccc(OCCC2CCN(CCCCCCN3CCCCC3)CC2)cc1Cl
XC50: 1140 nM

CCN(c1ccccc1)S(=O)(=O)c1ccc(OC)c(NC(=O)c2cccc(C(F)(F)F)c2)c1
XC50: 881 nM

O=C(/C=C/c1ccc(Cl)c(Cl)c1)NCCCCCN1CCC(NC(=O)Nc2ccc(Br)cc2)CC1
XC50: 567 nM

CC(C)(CN)c1nc(-c2ccc(Cl)c(O)c2)c(-c2ccnc(N)n2)[nH]1
XC50: 981 nM

Cc1ccc(O)cc1Nc1ccnc2ccc(-c3cccc(CNCCN(C)C)c3)cc12
XC50: 612 nM

COc1cccc(-c2ccc(C(=O)NCC3CCCN(Cc4cccc(C(F)(F)F)c4)C3)s2)c1 (stereo not drawn)
XC50: 1140 nM

CC(CCc1ccccc1)NCC(O)c1ccc2c(c1)S(=O)(=O)c1ccccc1N2 (stereo not drawn)
XC50: 1220 nM

c1ccc2c(NCCCCCCNc3ccnc4ccccc34)ccnc2c1
XC50: 191 nM

Cn1c(=O)c2cc(C(=O)NCCCN3CCCCCC3)sc2c2ccccc21
XC50: 689 nM

O=C(Nc1cccnc1)c1cn(-c2ccccc2)nc1-c1cccs1
XC50: 869 nM

COc1ccc(NC(=O)CCNc2cc(C)nc(NCCc3ccc(F)cc3)n2)cc1
XC50: 848 nM

CCCCCCC(C)c1cc(OCCN(CC)CC)c2c(c1)OC(C)(C)C=C2c1ccncc1 (stereo not drawn)
XC50: 1260 nM

Nc1nc(N)c2c(ccc3c2ccn3CCCC2CCCNC2)n1 (stereo not drawn)
XC50: 898 nM

CN1CCN(c2ccc(-c3cccc(NC(=O)c4ccc5ccccc5c4)c3)nn2)CC1
XC50: 383 nM

O=C1NC(c2ccc(N3CCCCCC3)cc2)Nc2ccccc21 (stereo not drawn)
XC50: 566 nM

O=C(/C=C/c1ccc(Cl)c(Cl)c1)N1CCC(CN2CCC(c3c(-c4ccccc4)[nH]c4ccccc34)CC2)CC1
XC50: 335 nM

O=C(C=Cc1ccccc1)Nc1ccc(C#CC=Cc2ccc(NC(=O)C=Cc3ccccc3)cc2)cc1
XC50: 847 nM

Cc1ccc(Cc2c[nH]c(NCCSCc3ccc(CN4CCOCC4)o3)nc2=O)cn1
XC50: 1070 nM

COc1cccc(-c2cnc(-c3ccncc3)nc2C2CCN(Cc3ccc(NC(C)=O)cc3)CC2)c1
XC50: 1500 nM

Cc1ccccc1C1CCN(C2CCC(NC(=O)/C=C/c3c(F)ccc(F)c3F)CC2)CC1 (stereo not drawn)
XC50: 1260 nM

c1ccc(CN2CCC(NCc3ccccc3-c3cccc(CNCc4ccc5c(c4)OCO5)c3)CC2)cc1
XC50: 573 nM

COC(=O)c1ccc2nc(-c3cc(-c4cccc(-c5ccccc5)c4)cnc3N)[nH]c2c1
XC50: 211 nM

COc1cc(NCC(O)CNc2cc(OC)c3ccccc3n2)nc2ccccc12
XC50: 109 nM

Cc1ccc(C(C(=O)Nc2ccc(N3CCNCC3)c(Cl)c2)c2ccccc2)cc1 (stereo not drawn)
XC50: 843 nM

NC1CCN(Cc2cccc(-c3ccc(-c4nc5cc(C(F)(F)F)ccc5[nH]4)cc3)c2)C1 (stereo not drawn)
XC50: 698 nM

O=C(Nc1ccc(Cl)cc1)c1cccc(S(=O)(=O)NC2CCN(CC3CCCCC3)C2)c1 (stereo not drawn)
XC50: 905 nM

CCc1ccc(-n2cc(C(=O)c3cc(Br)ccc3O)cc(C#N)c2=O)cc1
XC50: 797 nM

Nc1nc(-c2ccccn2)nc(-n2nc(-c3cccc(C(F)(F)F)c3)cc2N)n1
XC50: 1040 nM

CC1CCc2sc(-c3nnc(SC(C)C(=O)N4CCCC4)o3)cc2C1 (stereo not drawn)
XC50: 878 nM

CCCCCCN1CCC(CNCc2cccc([N+](=O)[O-])c2)CC1
XC50: 720 nM

CN(C)Cc1c(O)ccc2oc(Cc3ccccc3)cc12
XC50: 912 nM

CCOC(=O)NC1=NC(C)(C)N(OCCCOc2cc(Cl)c(Cl)cc2Cl)C(NC(=O)OCC)=N1
XC50: 31.2 nM

FC(F)(F)c1ccc(NC(=S)N2CCC(CN3CCC(c4c[nH]c5ccccc45)CC3)CC2)cc1
XC50: 663 nM

C[C@@H]1C[C@@H]([C@H](O)CC2CC(=O)NC(=O)C2)C(=O)[C@@H](C)C1 [CYCLOHEXIMIDE]
XC50: 527 nM

COc1cccc(CN(C(=O)Nc2ccccc2F)[C@H]2C[C@H]3C(=O)Nc4cc(F)ccc4C(=O)N3C2)c1
XC50: 841 nM

C#CCOc1ccccc1CN1CCC(N2CCc3cc(NC(=O)c4cc(C)on4)ccc32)C1 (stereo not drawn)
XC50: 675 nM

CCCCc1ccc(CCNCCCCCCNCCc2ccc(O)c(O)c2)cc1
XC50: 1070 nM

O=C(Nc1ccc(C(=O)OCC2CCCN3CCCCC23)cc1)c1ccc(Cl)c(Cl)c1 (stereo not drawn)
XC50: 721 nM

Cc1ccc(CN2CCN(c3cc4c(cc3Cl)CCN4C(=O)Cc3ccc(Cl)c(NC(=O)Nc4cccc(C#N)c4)c3)CC2)cc1
XC50: 1130 nM

CO/C(=C\C=C\c1cc2cc(Cl)c(Cl)cc2[nH]1)C(=O)NCCCN1CCN(c2cccc(OCC(=O)Nc3cccc(C(=O)c4ccccc4)c3)c2)CC1
XC50: 686 nM

CC(C)c1ccc(NC(=O)Nc2ccc(CCNCCCc3ccccc3)cc2)cc1
XC50: 761 nM

Source: ChEMBL document CHEMBL1157539, “Thousands of chemical starting points for antimalarial lead identification” (Nature, 2010)
